Values after ≈ are worked out from the molar mass of the structure shown.
Key:
A. xylosoxidans 37F = assay: Antimicrobial microdilution assay (MIC/MBC); type: cell-based, Achromobacter xylosoxidans; conditions: Achromobacter xylosoxidans, 37F
Method in brief: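 Broth microdilution: 0.5 McFarland suspensions, diluted twenty-fold, were mixed 1:10 with polyphenol dilutions (0.0039–1 mg/mL) and incubated 24 h at 37 °C.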

MRSA IBRS MRSA 011 [1] = assay: Catheter biofilm inhibition model; type: cell-based, Staphylococcus aureus; conditions: even in the sub-MIC concentration, 24 h
Procedure: The method was performed as described previously, with some modifications. Sterile silicon 16-mm Romed catheters (Van Oostveen Medical, Wilnis, The Netherlands) were cut into 1 cm lengths and placed in 24-well plates (Sarstedt, Nümbrecht, Germany). P. aeruginosa IBRS P001 and MRSA in TSB with 2% glucose (Torlak, Belgrade, Serbia) and rutin (0.25–1 MIC) were added for the inhibition assay. After incubation (37 °C, 24 h), the catheters were washed with PBS and transferred to 1.5 mL tubes. PBS was added and tubes were vortexed vigorously. The samples were diluted and seeded onto Plate Count Agar (HiMedia Laboratories, Mumbai, India). After being incubated at 37 °C for 24 h, the CFU (colony forming units) count was determined and the inhibition percentage relative to the untreated control was calculated.

MRSA IBRS MRSA 011 [2] = assay: Bacterial adhesion to HaCaT cells; type: cell-based, Staphylococcus aureus
Procedure: HaCaT cells were grown until confluence in 24-well plates with an adhesive bottom. The medium was removed and DMEM without FBS containing the rutin (MIC and 0.5 MIC) was added. The samples were incubated at 37 °C for 15 min, and bacteria (P. aeruginosa IBRS P001 and MRSA IBRS MRSA 011) were added. After incubation at 37 °C for 1 h, the cells were washed three times with DMEM without FBS and lyzed with 1 mL of 1% (v/v) Tween-20 (SigmaAldrich, Germany) at 37 °C for 30 min. Afterwards, dilutions of the bacterial suspension in each well were made and seeded on Plate Count Agar plates. The number of CFU was determined after incubation at 37 °C for 18 h, and the percentage of adhered bacterial cells was calculated following the equation:% (adhesion relative to the control) = 100 × CFU (treated)/CFU (control)
With CFU (treated) representing the number of CFUs after the treatment of cells with rutin and CFU (control) representing the number of bacterial CFUs in the untreated sample. The solvent treated sample was used as the control.

[3] = tested on: P. aeruginosa IBRS P001 biofilm; assay: Quantification of eDNA (biofilm formation); type: cell-based; conditions: Pseudomonas aeruginosa, IBRSP001BIOFILM; 0.25 MIC, 0.125 mg/mL; read-out: inhibition of eDNA levels
Procedure: The quantity of eDNA was determined as previously described, with some modifications. […] Subsequently, the planktonic cells were removed, and the wells were washed with PBS. TE buffer (Tris-EDTA buffer solution) was added to the wells and content was mixed vigorously by pipetting. The samples were transferred to 1.5 mL tubes and centrifuged at 10,000× g for 10 min. After removal of the supernatant, the pellet was suspended in a TE buffer by vortexing. Absorbance of the supernatant (260 nm) was measured after centrifugation at 10,000× g for 15 min. We calculated the inhibition percentage of eDNA relative to an untreated control. The solvent treated sample was used as the control.

[4] = tested on: P. aeruginosa IBRS P001 rhamnolipid production; assay: Rhamnolipid assay; type: cell-based, Pseudomonas aeruginosa; conditions: 0.25 mg/mL (0.5 MIC), compared to the control
Procedure: Culture supernatants of the previously cultivated P. aeruginosa IBRS P001 strain incubated with rutin 0.250 mg/mL were acidified by using HCl to pH 2.0 [72]. Rhamnolipid production was measured spectrophotometrically at 570 nm by a Plate Reader Infinite 200 pro (MTX Lab Systems, Vienna, VA, USA). A solvent treated culture supernatant was used as a positive control.

lasI = assay: RT-qPCR analysis of QS genes; type: cell-based, Pseudomonas aeruginosa; conditions: 0.5 MIC, 0.25 mg/mL, vs untreated control
Procedure: (§1) Reverse transcription-quantitative PCR (RT-qPCR) was performed to reveal the impact of rutin on the P. aeruginosa IBRS P001 quorum sensing (QS) regulatory genes expression. The total RNA was extracted from the P. aeruginosa IBRS P001 test strain (grown for 10 h, 37 °C, aerobically) cultivated in Mueller-Hinton medium and supplemented with rutin (0.250 mg/mL, final concentration) or without it by an RNeasy Mini Kit (Qiagen, Hilden, Germany). The same volume of the ethanol (solvent) was added in the positive control. The total RNA was then treated with DNase I using an Ambion DNA-freeTM Kit (ThermoFisher, Waltham, MA, USA) and reverse transcribed by a Rever-tAid RT Reverse transcription Kit (ThermoFisher, Waltham, MA, USA) according to the manufacturer’s instructions. […] Obtained data were normalized against the ribosomal gene rpsL as an internal control following the 2^−ΔΔCT method. Experiments were done in triplicate.

lasR = assay: RT-qPCR analysis of QS genes; type: cell-based, Pseudomonas aeruginosa; conditions: 0.5 MIC, 0.25 mg/mL, vs untreated control
Procedure: as §1

mvfR = assay: RT-qPCR analysis of QS genes; type: cell-based, Pseudomonas aeruginosa; conditions: 0.5 MIC, 0.25 mg/mL, vs untreated control
Procedure: as §1

pqsA = assay: RT-qPCR analysis of QS genes; type: cell-based, Pseudomonas aeruginosa; conditions: 0.5 MIC, 0.25 mg/mL, vs untreated control
Procedure: as §1

rhlI = assay: RT-qPCR analysis of QS genes; type: cell-based, Pseudomonas aeruginosa; conditions: 0.5 MIC, 0.25 mg/mL, vs untreated control
Procedure: as §1

rhlR = assay: RT-qPCR analysis of QS genes; type: cell-based, Pseudomonas aeruginosa; conditions: 0.5 MIC, 0.25 mg/mL, vs untreated control
Procedure: as §1

[5] = tested on: multiple drug resistant P. aeruginosa; parameters: method as in doi:10.1016/j.foodcont.2018.02.044; conditions: cited from earlier work

## C[C@@H]1O[C@@H](OC[C@H]2O[C@@H](Oc3c(-c4ccc(O)c(O)c4)oc4cc(O)cc(O)c4c3=O)[C@H](O)[C@@H](O)[C@@H]2O)[C@H](O)[C@H](O)[C@H]1O [Rutin, rutin]
A. xylosoxidans 37F; 37 °C, 24 h, read-out: MIC
  MIC: 500 µg/mL (≈ 819 µM)
A. xylosoxidans 37F; subcultivation, 24 h at 37 °C, read-out: MBC
  MBC: 1000 µg/mL (≈ 1640 µM)
MRSA IBRS MRSA 011 [1]
  catheter biofilm forming ability, in words: significantly reduced
MRSA IBRS MRSA 011 [2]; Staphylococcus aureus, MRSA, Keratinocyte, read-out: reduction of CFU adhered to human keratinocytes (inhibition)
  inhibition at 250 µg/mL: 19%
MRSA IBRS MRSA 011 [2]; rutin MIC
  reduction of CFU adhered to human keratinocytes: 63%
[3]
  inhibition at 125 µg/mL: > 50%
[4]
  decrease of rhamnolipid production: 74.4%
lasI
  decrease of relative expression: 2.4 times
lasR
  decrease of relative expression: about 1.7 times
mvfR
  decrease of relative expression: 2.2 times
pqsA
  downregulation of relative mRNA level: 3 fold
rhlI
  downregulation of relative mRNA level: 2.6 fold
rhlR
  decrease of relative expression: about 1.7 times
[5]
  MIC: 800 µg/mL (≈ 1310 µM)

Source: PMC8952364, “Polyphenols as Inhibitors of Antibiotic Resistant Bacteria—Mechanisms Underlying Rutin Interference with Bacterial Virulence” (Pharmaceuticals, 2022)
